Assay results from patent US20230026259A1, “CA2 COMPOSITIONS AND METHODS FOR TUNABLE REGULATION” (Obsidian Therapeutics, Inc., priority 2019, published 2023).

Assays:
Format in all cases: cell-based
[1] = test system: human primary T cells; assay: Expression of IL15 chimeric constructs by flow cytometry (percent IL15 positive cells); details: for percentage of IL15 positive cells: human primary T cells, day 6, no ligand stated
Description: In vitro activity of IL15 chimeric constructs OT-002019 ((Met; CD34 (aa 1-32 of WT, M1G, S32A); IL15 (30-162 of WT); Linker ((GS)15); CD8a Hinge and Transmembrane Domain; Linker (GS); stop), amino acid SEQ ID NO: 210876, nucleic acid SEQ ID NO: 210877) and OT-002090 ((Ig Kappa light chain leader; IL15 (49-162 of WT); Linker ((GS)15); B7-1 Hinge, Transmembrane Domain and Tail; Linker (GS); stop), amino acid SEQ ID NO: 210878, nucleic acid SEQ ID NO: 210879) and CA2 regulated IL15 chimeric construct (OT-002094) were tested in human primary T cells. Human primary T cells were transduced with lentivirus 24 hours after activation with CD3/CD28 beads. Cells were expanded for 10 days. […] The percentage of IL15 positive cells obtained for each treatment group is as follows (a) OT-002019: 82.3% (b) OT-002090: 43.6% (c) OT-002094 with DMSO: 0.7% (d) OT-002094 with 10 μM Acz: 27.9% and (e) untransduced (UT): 0.3%.
(§1) To test IL15-dependent expansion, beads were removed on day 10 and cells were washed. […] The T cell numbers (Table 30) and the change in CD4/CD8 ratio (Table 31) were determined by flow cytometry.

[2] = test system: human primary T cells; assay: IL15-dependent expansion: T cell numbers and CD4/CD8 ratio by flow cytometry
Procedure: as §1

[3] = test system: NIH3T3 cells; assay: Destabilization mutant screening of human CA2 linked to GFP, ligand response by FACS (Valdecoxib, Celecoxib, Acetazolamide)
Procedure: To identify destabilizing mutations of human CA2 that are stabilized upon ligand binding to CA2, two rounds of mutant screening were performed, using a lentivirus CA2 mutant library provided by Genscript (China). These methods were used to generate a library of mutant polypeptides using mutagenesis primers and error prone PCR. Lentiviral vectors expressing the template, wild-type human CA2 operably linked to GFP(OT-001986) was also provided by Genscript along with the CA2 mutant library. The library was packaged into lentivirus, transduced into NIH3T3 cells at a multiplicity of infection (MOI) of approximately 0.3 and select stable cell pools were derived by selecting with selection marker puromycin.
To identify cell pools containing destabilizing mutants of CA2 that are stabilizing when CA2 is bound to its corresponding ligand, cells were sorted using FACS. In the initial round, the bottom 15% of population that was GFP negative in the absence of ligand was selected. Cells were expanded and then treated with 10 μM Celecoxib for 24 hours and harvested for cell sorting. The top 11% GFP positive cells which were also responsive to ligand treatment compared to untreated were collected. Celecoxib was removed from the cultures and replaced with DMSO. […] Genomic DNA was isolated and amplified CA2 mutants were reintroduced to the lentiviral vectors where CA2 was operably linked to GFP. The constructs were transduced into NIH3T3 cells with lentivirus vectors for each clone. The cells were treated with 10 μM Valdecoxib or 10 μM Celecoxib for 24 hours and analyzed by FACS. […] In Table 25, the Construct ID (OT-XXXXXX) refers to the construct which includes the referenced CA2 mutant and the Library ID (LibCXXXXXX) refers to the CA2 mutant itself.
The response of NIH3T3 cells to varying doses of Valdecoxib or Celecoxib for 24 hours was measured and analyzed by FACS.
Clones treated with different ligands were compared to examine the behavior of each mutant with the ligands.

[4] = test system: NIH3T3 cells; assay: Immunoblotting of cell lysates for GFP after ligand treatment; details: NIH3T3 cells, 0.3, 1, 3, 10 or 30 μM Acetazolamide, 24 hours
Procedure: The protein expression in the presence of ligand was measured by immunoblotting the cell lysates for GFP.
The protein expression in the presence of ligand was measured by immunoblotting cell lysates for GFP.

[5] = NIH3T3, 10 μM Celecoxib vs DMSO
[6] = NIH3T3, 10 μM Valdecoxib vs DMSO
[7] = NIH3T3, Celecoxib μM (concentration not given)
[8] = NIH3T3, Valdecoxib μM (concentration not given)
[9] = day 0 in culture, untransduced T cells + exogenous IL15 1 ng/ml
[10] = day 3 in culture, untransduced T cells + exogenous IL15 1 ng/ml
[11] = day 7 in culture, untransduced T cells + exogenous IL15 1 ng/ml
[12] = day 10 in culture, untransduced T cells + exogenous IL15 1 ng/ml

Substance: (Ig Kappa light chain leader; IL15 (49-162 of WT); Linker ((GS)15); B7-1 Hinge, Transmembrane Domain and Tail; Linker (GS); stop) [OT-002090]
- Percent of cells IL15 positive ([1]; day 0 in culture, media alone): 30%
- Percent of cells IL15 positive ([1]; day 3 in culture, media alone): 40%
- Percent of cells IL15 positive ([1]; day 7 in culture, media alone): 38%
- Percent of cells IL15 positive ([1]; day 10 in culture, media alone): 16%
- percentage of IL15 positive cells [1]: 43.6%
- CD4/CD8 Ratio ([2]; day 0 in culture, media alone): 3.79
- T Cell Numbers ([2]; day 0 in culture, media alone): 1.0E+06
- CD4/CD8 Ratio ([2]; day 3 in culture, media alone): 0.66
- T Cell Numbers ([2]; day 3 in culture, media alone): 1.3E+06
- CD4/CD8 Ratio ([2]; day 7 in culture, media alone): 0.09
- T Cell Numbers ([2]; day 7 in culture, media alone): 4.1E+06
- CD4/CD8 Ratio ([2]; day 10 in culture, media alone): 0.04
- T Cell Numbers ([2]; day 10 in culture, media alone): 1.0E+07

Substance: (Met; CD34 (aa 1-32 of WT, M1G, S32A); IL15 (30-162 of WT); Linker ((GS)15); CD8a Hinge and Transmembrane Domain; Linker (GS); stop) [OT-002019]
- Percent of cells IL15 positive ([1]; day 0 in culture, 3 uM ACZ): 75%
- Percent of cells IL15 positive ([1]; day 0 in culture, 10 uM ACZ): 75%
- Percent of cells IL15 positive ([1]; day 0 in culture, media alone): 75%
- Percent of cells IL15 positive ([1]; day 3 in culture, 3 uM ACZ): 82%
- Percent of cells IL15 positive ([1]; day 3 in culture, 10 uM ACZ): 82%
- Percent of cells IL15 positive ([1]; day 3 in culture, media alone): 82%
- Percent of cells IL15 positive ([1]; day 7 in culture, 3 uM ACZ): 84%
- Percent of cells IL15 positive ([1]; day 7 in culture, 10 uM ACZ): 85%
- Percent of cells IL15 positive ([1]; day 7 in culture, media alone): 84%
- Percent of cells IL15 positive ([1]; day 10 in culture, 3 uM ACZ): 78%
- Percent of cells IL15 positive ([1]; day 10 in culture, 10 uM ACZ): 79%
- Percent of cells IL15 positive ([1]; day 10 in culture, media alone): 76%
- percentage of IL15 positive cells [1]: 82.3%
- CD4/CD8 Ratio ([2]; day 0 in culture, 3 uM ACZ): 2.51
- T Cell Numbers ([2]; day 0 in culture, 3 uM ACZ): 1.0E+06
- CD4/CD8 Ratio ([2]; day 0 in culture, 10 uM ACZ): 2.51
- T Cell Numbers ([2]; day 0 in culture, 10 uM ACZ): 1.0E+06
- CD4/CD8 Ratio ([2]; day 0 in culture, media alone): 2.51
- T Cell Numbers ([2]; day 0 in culture, media alone): 1.0E+06
- CD4/CD8 Ratio ([2]; day 3 in culture, 3 uM ACZ): 0.46
- T Cell Numbers ([2]; day 3 in culture, 3 uM ACZ): 1.7E+06
- CD4/CD8 Ratio ([2]; day 3 in culture, 10 uM ACZ): 0.47
- T Cell Numbers ([2]; day 3 in culture, 10 uM ACZ): 1.7E+06
- CD4/CD8 Ratio ([2]; day 3 in culture, media alone): 0.45
- T Cell Numbers ([2]; day 3 in culture, media alone): 2.0E+06
- CD4/CD8 Ratio ([2]; day 7 in culture, 3 uM ACZ): 0.06
- T Cell Numbers ([2]; day 7 in culture, 3 uM ACZ): 5.7E+06
- CD4/CD8 Ratio ([2]; day 7 in culture, 10 uM ACZ): 0.07
- T Cell Numbers ([2]; day 7 in culture, 10 uM ACZ): 5.6E+06
- CD4/CD8 Ratio ([2]; day 7 in culture, media alone): 0.06
- T Cell Numbers ([2]; day 7 in culture, media alone): 6.7E+06
- CD4/CD8 Ratio ([2]; day 10 in culture, 3 uM ACZ): 0.02
- T Cell Numbers ([2]; day 10 in culture, 3 uM ACZ): 1.7E+07
- CD4/CD8 Ratio ([2]; day 10 in culture, 10 uM ACZ): 0.03
- T Cell Numbers ([2]; day 10 in culture, 10 uM ACZ): 1.6E+07
- CD4/CD8 Ratio ([2]; day 10 in culture, media alone): 0.02
- T Cell Numbers ([2]; day 10 in culture, media alone): 2.1E+07

Substance: CA2 (aa 2-260 of WT, G12R) [LibC000211]
- Median PE ([3]; NIH3T3, 10 μM Celecoxib): 20800
- SR (stabilization ratio) [3, 5]: 1.6
- Median PE ([3]; NIH3T3, 10 μM Valdecoxib): 19800
- SR (stabilization ratio) [3, 6]: 1.52
- MFI, comparative analysis, normalized to parental day 1 [3, 7]: 16550.54
- MFI, comparative analysis ([3]; NIH3T3, DMSO): 10344.09
- Median PE ([3]; NIH3T3, DMSO): 13000
- SR (stabilization ratio) ([3]; NIH3T3, DMSO (reference)): 1
- MFI, comparative analysis, normalized to parental day 1 [3, 8]: 15754.84

Substance: CA2 (aa 2-260 of WT, H17D, P30S, G81V, K132R, S151I, A152D, A173G, W191*) [LibC000191]
- Median PE ([3]; NIH3T3, 10 μM Celecoxib): 173
- SR (stabilization ratio) [3, 5]: 1.08
- Median PE ([3]; NIH3T3, 10 μM Valdecoxib): 177
- SR (stabilization ratio) [3, 6]: 1.11
- Median PE ([3]; NIH3T3, DMSO): 160
- SR (stabilization ratio) ([3]; NIH3T3, DMSO (reference)): 1

Substance: CA2 (aa 2-260 of WT, I59N, G102R) [LibC000184]
- MFI, comparative analysis ([3]; NIH3T3, Acetazolamide 10 μM): 9295
- MFI, comparative analysis ([3]; NIH3T3, Acetazolamide 30 μM): 10900
- MFI, comparative analysis, normalized to parental day 1 [3, 7]: 4660.217
- MFI, comparative analysis ([3]; NIH3T3, DMSO): 380
- MFI, comparative analysis, normalized to parental day 1 [3, 8]: 3478.892
- GFP protein expression by immunoblot, Acetazolamide [4]: stabilization of GFP with increasing ligand doses

Substance: CA2 (aa 2-260 of WT, L47R) [LibC000220]
- Median PE ([3]; NIH3T3, 10 μM Celecoxib): 384
- SR (stabilization ratio) [3, 5]: 1.2
- Median PE ([3]; NIH3T3, 10 μM Valdecoxib): 408
- SR (stabilization ratio) [3, 6]: 1.31
- Median PE ([3]; NIH3T3, DMSO): 311
- SR (stabilization ratio) ([3]; NIH3T3, DMSO (reference)): 1

Substance: CA2 (aa 2-260 of WT, N61R, K80M, K212N, N231T, L250P) [LibC000198]
- Median PE ([3]; NIH3T3, 10 μM Celecoxib): 535
- SR (stabilization ratio) [3, 5]: 1.95
- Median PE ([3]; NIH3T3, 10 μM Valdecoxib): 552
- SR (stabilization ratio) [3, 6]: 2
- Median PE ([3]; NIH3T3, DMSO): 275
- SR (stabilization ratio) ([3]; NIH3T3, DMSO (reference)): 1

Substance: CA2 (aa 2-260 of WT, S73F) [LibC000212]
- Median PE ([3]; NIH3T3, 10 μM Celecoxib): 30700
- SR (stabilization ratio) [3, 5]: 1.02
- Median PE ([3]; NIH3T3, 10 μM Valdecoxib): 30700
- SR (stabilization ratio) [3, 6]: 1.02
- Median PE ([3]; NIH3T3, DMSO): 30100
- SR (stabilization ratio) ([3]; NIH3T3, DMSO (reference)): 1

Substance: CA2 (aa 2-260 of WT, T35I, Y114H, P154L, D161V, P200A, F225L, E233D, W244*) [LibC000188]
- Median PE ([3]; NIH3T3, 10 μM Celecoxib): 225
- SR (stabilization ratio) [3, 5]: 1.09
- Median PE ([3]; NIH3T3, 10 μM Valdecoxib): 228
- SR (stabilization ratio) [3, 6]: 1.11
- Median PE ([3]; NIH3T3, DMSO): 206
- SR (stabilization ratio) ([3]; NIH3T3, DMSO (reference)): 1

Substance: IL15
- Percent of cells IL15 positive [1, 9]: 0%
- Percent of cells IL15 positive [1, 10]: 1%
- Percent of cells IL15 positive [1, 11]: 0%
- Percent of cells IL15 positive [1, 12]: 1%
- CD4/CD8 Ratio [2, 9]: 5.64
- T Cell Numbers [2, 9]: 1.0E+06
- CD4/CD8 Ratio [2, 10]: 2.57
- T Cell Numbers [2, 10]: 3.2E+06
- CD4/CD8 Ratio [2, 11]: 0.64
- T Cell Numbers [2, 11]: 5.4E+06
- CD4/CD8 Ratio [2, 12]: 0.28
- T Cell Numbers [2, 12]: 1.2E+07
